Reference: ChEMBL document CHEMBL1124271, “Synthesis of ethyl 2-(4-chlorophenyl)-5-(2-furyl)-4-oxazoleacetate, a hypolipidemic agent, and related compounds” (1988)
The source made the active and inactive calls. The calls are words filed in the database; no cut-off is given here.

Assays:
Rattus norvegicus [1] = organism: Rattus norvegicus; assay: Hypolipidemic activity was expressed as percent decrease in serum cholesterol in Sprague-Dawley rats; format: functional; set-up: concentration or dose not given beside the values
Rattus norvegicus [2] = organism: Rattus norvegicus; assay: Hypolipidemic activity was expressed as percent decrease in triglycerides in Sprague-Dawley rats; format: functional; set-up: concentration or dose not given beside the values
Rattus norvegicus [3] = organism: Rattus norvegicus; assay: Inhibition of collagen-induced platelet aggregation in male SD rats; Inhibition >= 10% but < aspirin (34-96%).; format: functional
Rattus norvegicus [4] = organism: Rattus norvegicus; assay: Ability to inhibit collagen -induced platelet aggregation in male SD rats; <10; format: functional; set-up: concentration or dose not given beside the values
Rattus norvegicus [5] = organism: Rattus norvegicus; assay: The ability to inhibit platelet aggregation was tested; <10; format: functional
Rattus norvegicus [6] = organism: Rattus norvegicus; assay: The ability to inhibit platelet aggregation was tested; Inhibition >= 10% but < aspirin (34-96%); format: functional
Rattus norvegicus [7] = organism: Rattus norvegicus; assay: Ability to inhibit collagen -induced platelet aggregation in male SD rats; No evaluation; format: functional, organism-based
Rattus norvegicus [8] = organism: Rattus norvegicus; assay: Hypolipidemic activity was expressed as percent decrease in triglycerides; format: functional; set-up: concentration or dose not given beside the values
Rattus norvegicus [9] = organism: Rattus norvegicus; assay: Hypolipidemic activity was expressed as percent decrease in serum cholesterol; format: functional; set-up: concentration or dose not given beside the values
Rattus norvegicus [10] = organism: Rattus norvegicus; assay: Hypolipidemic activity was expressed as percent decrease in serum cholesterol in Sprague-Dawley rats; No evaluation; format: functional, organism-based
Rattus norvegicus [11] = organism: Rattus norvegicus; assay: Hypolipidemic activity was expressed as percent decrease in triglycerides; No evaluation; format: functional, organism-based
Rattus norvegicus [12] = organism: Rattus norvegicus; assay: Ability to inhibit collagen -induced platelet aggregation in male SD rats; Inhibition >= aspirin (34-96%); format: functional, organism-based
Rattus norvegicus [13] = organism: Rattus norvegicus; assay: Ability to inhibit collagen -induced platelet aggregation in male SD rats; NE means no evaluation; format: functional, organism-based
Rattus norvegicus [14] = organism: Rattus norvegicus; assay: Hypolipidemic activity was expressed as percent decrease in serum cholesterol; NE means no evaluation; format: functional, organism-based
Rattus norvegicus [15] = organism: Rattus norvegicus; assay: Hypolipidemic activity was expressed as percent decrease in triglycerides; NE means no evaluation; format: functional, organism-based

SMILES | Reduction (Rattus norvegicus [1]) | Reduction (Rattus norvegicus [2]) | Inhibition (Rattus norvegicus [3]) | further results
CCOC(=O)Cc1nc(-c2ccc(Cl)cc2)oc1-c1ccc(Br)o1 | 10% | 2% |  | 
O=C(O)Cc1nc(-c2ccc(Cl)cc2)oc1-c1ccco1 | 20% | 35% | >=10% | 
O=C(Cc1nc(-c2ccc(Cl)cc2)oc1-c1ccco1)OCc1cccnc1 | 18% | 42% |  | Inhibition (Rattus norvegicus [4]): <10%
CCOC(=O)Cc1nc(-c2ccc(Cl)cc2)oc1-c1ccc(C(C)=O)o1 | 0% | -14% |  | 
CCOC(=O)C(C)(C)c1nc(-c2ccc(Cl)cc2)oc1-c1ccco1 | -4% | -25% |  | Inhibition (Rattus norvegicus [5]): <10%
CCOC(=O)C(C)c1nc(-c2ccc(Cl)cc2)oc1-c1ccoc1 (configuration not stated) | 22% | 45% |  | Inhibition (Rattus norvegicus [6]): >=10%
O=C(O)Cc1nc(-c2ccc(Cl)c(Cl)c2)oc1-c1ccoc1 | 19% | 60% | >=10% | 
CCOC(=O)Cc1nc(-c2ccc(OC)cc2)oc1-c1ccco1 | 0% | 4% | >=10% | 
CCOC(=O)Cc1nc(-c2ccc(Cl)cc2)oc1N1CCCC1 | -2% | -20% |  | 
O=C(O)Cc1nc(-c2ccc(Cl)cc2)oc1-c1ccoc1 | 23% | 42% |  | 
CCCCc1nc(CC(=O)OCC)c(-c2ccco2)o1 | 2% | 16% |  | 
CCOC(=O)Cc1nc(-c2ccc(Cl)cc2)sc1-c1ccsc1 | -8% | 21% |  | inhibition (Rattus norvegicus [7]): No effect
CCOC(=O)Cc1nc(-c2ccccc2)oc1-c1ccoc1 | 17% | 46% | >=10% | 
CCOC(=O)Cc1nc(-c2ccc(Cl)c(Cl)c2)oc1-c1ccoc1 | 19% | 49% |  | Inhibition (Rattus norvegicus [4]): <10%
CCOC(=O)Cc1nc(-c2ccc(Cl)cc2)oc1-c1ccc(C=O)o1 |  |  |  | Reduction (Rattus norvegicus [8]): -5%; Reduction (Rattus norvegicus [9]): 9%
CCOC(=O)Cc1nc(-c2ccc(F)cc2)oc1-c1ccoc1 | 30% | 28% | >=10% | 
CC(C)c1nc(CC(=O)O)c(-c2ccco2)o1 | 5% | 9% |  | Inhibition (Rattus norvegicus [4]): <10%
CCCCOC(=O)Cc1nc(-c2ccc(Cl)cc2)oc1-c1ccco1 | 20% | 27% |  | Inhibition (Rattus norvegicus [4]): <10%
CCOC(=O)Cc1nc(-c2ccc(Cl)cc2)oc1-c1ccsc1 | 23% | 39% |  | Inhibition (Rattus norvegicus [6]): >=10%
CCOC(=O)Cc1nc(C(C)C)oc1-c1ccsc1 | 15% | 28% | >=10% | 
CCOC(=O)Cc1nc(-c2ccc(F)cc2)oc1-c1ccco1 | 20% | 24% | >=10% | 
CCOC(=O)Cc1nc(C)oc1-c1ccco1 |  |  |  | inhibition (Rattus norvegicus [7]): No effect; Reduction (Rattus norvegicus [10]): No effect; Reduction (Rattus norvegicus [11]): No effect
Cc1ccc(-c2nc(CC(=O)O)c(-c3ccco3)o2)cc1 | 9% | 29% | >=10% | 
CC(C(=O)O)c1nc(-c2ccc(Cl)cc2)oc1-c1ccco1 (configuration not stated) | 16% | 41% |  | 
CCOC(=O)Cc1nc(-c2ccc(Cl)cc2)sc1-c1ccco1 | -15% | 17% |  | 
COc1ccc(-c2nc(CC(=O)O)c(-c3ccco3)o2)cc1 | 5% | -1% | >=10% | 

SMILES | Reduction (Rattus norvegicus [1]) | Reduction (Rattus norvegicus [2]) | Inhibition (Rattus norvegicus [3]) | further results
CC(=O)Oc1ccccc1C(=O)O |  |  |  | inhibition (Rattus norvegicus [12]): Active
O=C(O)Cc1nc(-c2ccccc2)oc1-c1ccco1 | 14% | 29% | >=10% | 
CCOC(=O)Cc1nc(-c2ccc(Cl)cc2)oc1-c1ccc(S(=O)(=O)O)o1 | -5% | 23% |  | 
CCOC(=O)C(CC)c1nc(-c2ccc(Cl)cc2)oc1-c1ccco1 (configuration not stated) | 0% | -10% |  | Inhibition (Rattus norvegicus [5]): <10%
CCOC(=O)Cc1nc(C(C)C)oc1-c1ccco1 | 12% | 21% |  | Inhibition (Rattus norvegicus [4]): <10%
CC(C)c1nc(CC(=O)O)c(-c2ccsc2)o1 | 20% | 16% | >=10% | 
O=C(O)Cc1nc(-c2ccc(F)cc2)oc1-c1ccco1 |  |  | >=10% | Reduction (Rattus norvegicus [8]): 10%; Reduction (Rattus norvegicus [9]): 20%
CCCCCCCOC(=O)Cc1nc(-c2ccc(Cl)cc2)oc1-c1ccco1 |  |  |  | Inhibition (Rattus norvegicus [4]): <10%; Reduction (Rattus norvegicus [8]): 42%; Reduction (Rattus norvegicus [9]): 19%
CCCCCCCc1nc(CC(=O)OCC)c(-c2ccsc2)o1 |  |  |  | inhibition (Rattus norvegicus [13]): No effect; Reduction (Rattus norvegicus [14]): No effect; Reduction (Rattus norvegicus [15]): No effect
O=C(O)Cc1nc(-c2cccc(C(F)(F)F)c2)oc1-c1ccco1 | 8% | 50% | >=10% | 
CCOC(=O)Cc1nc(-c2ccc(Cl)cc2)oc1-c1ccco1 | 23% | 35% | >=10% | 
CCOC(=O)Cc1nc(-c2cccc(C(F)(F)F)c2)oc1-c1ccco1 | 15% | 0% |  | Inhibition (Rattus norvegicus [4]): <10%
CCCCCCCCCCCCOC(=O)Cc1nc(-c2ccc(Cl)cc2)oc1-c1ccco1 |  |  |  | Inhibition (Rattus norvegicus [4]): <10%; Reduction (Rattus norvegicus [8]): 30%; Reduction (Rattus norvegicus [9]): 20%
CCOC(=O)C(C)c1nc(-c2ccc(Cl)cc2)oc1-c1ccco1 (configuration not stated) | 20% | 31% |  | Inhibition (Rattus norvegicus [6]): >=10%
CCOC(=O)Cc1nc(-c2ccccc2)oc1C1CCCO1 (configuration not stated) | 8% | 8% |  | Inhibition (Rattus norvegicus [4]): <10%
CCOC(=O)Cc1nc(-c2ccc(Cl)cc2)oc1-c1ccoc1 | 25% | 42% | >=10% | 
CCOC(=O)Cc1nc(-c2ccccc2)oc1-c1ccco1 | 14% | 23% | >=10% | 
O=C(O)Cc1nc(C2CCCCC2)oc1-c1ccco1 | 13% | 18% | >=10% | 
CCCCCCCc1nc(CC(=O)O)c(-c2ccsc2)o1 |  |  | >=10% | Reduction (Rattus norvegicus [8]): 27%; Reduction (Rattus norvegicus [9]): 11%
Cc1nc(CC(=O)O)c(-c2ccco2)o1 | 10% | -20% |  | Inhibition (Rattus norvegicus [4]): <10%
CCOC(=O)C(C)(C)Oc1ccc(Cl)cc1 [CLOFIBRATE] |  |  |  | Inhibition (Rattus norvegicus [4]): <10%; Reduction (Rattus norvegicus [8]): 30%; Reduction (Rattus norvegicus [9]): 15%
CCOC(=O)Cc1nc(-c2ccc(C)cc2)oc1-c1ccco1 | 9% | -6% | >=10% | 
CCOC(=O)Cc1nc(C2CCCCC2)oc1-c1ccco1 |  |  |  | inhibition (Rattus norvegicus [7]): No effect; Reduction (Rattus norvegicus [10]): No effect; Reduction (Rattus norvegicus [11]): No effect
CC(C)(C(=O)O)c1nc(-c2ccc(Cl)cc2)oc1-c1ccco1 | 16% | 54% |  | Inhibition (Rattus norvegicus [5]): <10%
O=C(O)Cc1nc(-c2ccc(F)cc2)oc1-c1ccoc1 | 23% | 38% | >=10% | 
